Tests used:
[1] = Water contact angle of polymer (spin-coated film, static contact angle); assay type: physicochemical; conditions: homopolymer of the monomer; silicon wafer spin-coated with 1.0% chloroform solution; 2 µL water, 1 minute after the droplet reached the film
Method: For the water contact angle of the polymer, a silicon wafer substrate was spin-coated with a chloroform solution of the resulting polymer with a solid concentration of 1.0% and the static water contact angle was measured. The static contact angle was obtained by dropping 2 µL of water on a coating film and measuring the contact angle 1 minute after the droplet reached the film.

[2] = Solubility in water of polymer and of monomer; assay type: physicochemical; conditions: thermodynamic from solid
Method: For the solubility in water of the monomers, the respective monomers were added in small batches to a predetermined amount of water, and the solubility in water was determined from the amount of dissolution when no more monomer could be dissolved (floating, precipitation or deposition occurred, or the solution became clouded).

solubility [2]	melting point	SMILES	Water contact angle of homopolymer [1]
–	–	C=C(C)C(=O)OCC(CC)CCCC (stereo not shown) [EHMA, 2-ethyhexyl methacrylate]	97 °
< 100 µg/mL	50 °C	C=CC(=O)OCCCCCCCCCCCCCCCCCC [SA, stearyl acrylate]	102 °

Source: US20230122463A1, “ORGANIC FINE PARTICLE” (DAIKIN INDUSTRIES, LTD., priority 2020, published 2023)
